Read-outs that look alike come from different tables or passages of the source.
Assays:
Muscarinic M3 = Muscarinic M3 (Homo sapiens, UniProt P20309); assay type: binding; settings: for % Inhibition: 10 μM
Rolipram = assay type: binding; settings: 10 μM; rat
Adrenergic β2 = Adrenergic β2 (Homo sapiens, UniProt P07550); assay type: binding; settings: for % Inhibition: 10 μM
CYP2C9 = CYP2C9 (Homo sapiens, UniProt P11712)
CYP2D6 = CYP2D6 (Homo sapiens, UniProt P10635)
Adrenergic α1A = target: T1, Adrenergic α1A (Rattus norvegicus, UniProt P43140); assay type: binding; settings: for % Inhibition: 10 μM
T1 sequence (P43140 1-466): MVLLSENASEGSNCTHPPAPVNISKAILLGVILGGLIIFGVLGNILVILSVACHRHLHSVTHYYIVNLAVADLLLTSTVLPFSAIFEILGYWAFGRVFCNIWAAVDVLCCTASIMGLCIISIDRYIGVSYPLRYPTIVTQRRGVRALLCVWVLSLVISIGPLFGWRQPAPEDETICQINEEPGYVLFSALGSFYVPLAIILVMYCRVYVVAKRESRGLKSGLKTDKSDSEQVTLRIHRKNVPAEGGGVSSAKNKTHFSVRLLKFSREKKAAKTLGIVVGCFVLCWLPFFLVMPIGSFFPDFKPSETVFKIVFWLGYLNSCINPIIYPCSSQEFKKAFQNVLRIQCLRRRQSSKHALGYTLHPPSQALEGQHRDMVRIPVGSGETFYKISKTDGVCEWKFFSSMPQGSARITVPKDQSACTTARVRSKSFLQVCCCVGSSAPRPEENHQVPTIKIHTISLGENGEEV

Prostanoid EP4 = Prostanoid EP4 (Homo sapiens, UniProt P35408); assay type: binding; settings: for % Inhibition: 10 μM
Chain of Prostanoid EP4 (P35408 whole entry): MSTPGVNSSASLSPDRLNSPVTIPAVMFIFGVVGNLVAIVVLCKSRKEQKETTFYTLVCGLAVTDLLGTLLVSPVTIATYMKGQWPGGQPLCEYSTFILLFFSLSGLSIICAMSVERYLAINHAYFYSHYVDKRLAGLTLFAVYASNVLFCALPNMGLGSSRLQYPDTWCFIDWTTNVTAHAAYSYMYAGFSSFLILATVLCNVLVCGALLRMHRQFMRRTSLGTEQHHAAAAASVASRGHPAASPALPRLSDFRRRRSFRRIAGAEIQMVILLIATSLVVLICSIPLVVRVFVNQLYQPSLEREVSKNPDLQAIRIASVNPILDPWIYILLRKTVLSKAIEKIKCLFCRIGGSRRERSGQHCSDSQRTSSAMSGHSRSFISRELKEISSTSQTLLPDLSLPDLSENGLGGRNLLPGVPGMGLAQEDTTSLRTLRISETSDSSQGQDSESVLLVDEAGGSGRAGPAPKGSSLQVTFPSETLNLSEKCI

Sodium Channel, Site 2 = assay type: binding; settings: 10 μM; rat
hERG potassium channel = hERG potassium channel (Homo sapiens, UniProt Q12809)
CYP1A2 = CYP1A2 (Homo sapiens, UniProt P05177)
Adrenergic α2A = target: T2, Adrenergic α2A (Homo sapiens, UniProt P08913); assay type: binding; settings: for % Inhibition: 10 μM
T2 sequence (P08913 1-465): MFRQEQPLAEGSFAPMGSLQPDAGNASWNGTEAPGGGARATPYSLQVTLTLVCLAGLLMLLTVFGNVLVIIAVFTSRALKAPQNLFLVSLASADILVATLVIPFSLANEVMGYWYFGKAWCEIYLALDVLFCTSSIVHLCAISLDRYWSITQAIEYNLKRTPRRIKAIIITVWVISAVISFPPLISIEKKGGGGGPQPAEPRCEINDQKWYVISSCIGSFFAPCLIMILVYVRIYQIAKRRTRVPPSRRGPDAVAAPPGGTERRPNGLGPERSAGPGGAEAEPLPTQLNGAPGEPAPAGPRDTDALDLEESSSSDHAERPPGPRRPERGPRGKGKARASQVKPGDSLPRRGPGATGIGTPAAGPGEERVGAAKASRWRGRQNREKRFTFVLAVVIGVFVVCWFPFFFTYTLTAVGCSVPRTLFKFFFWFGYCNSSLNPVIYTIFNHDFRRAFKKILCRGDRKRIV

CYP450, 2C19 [1] = target: T3, CYP450, 2C19 (Homo sapiens, UniProt P33261); settings: 10 μM
T3 sequence (P33261 whole entry): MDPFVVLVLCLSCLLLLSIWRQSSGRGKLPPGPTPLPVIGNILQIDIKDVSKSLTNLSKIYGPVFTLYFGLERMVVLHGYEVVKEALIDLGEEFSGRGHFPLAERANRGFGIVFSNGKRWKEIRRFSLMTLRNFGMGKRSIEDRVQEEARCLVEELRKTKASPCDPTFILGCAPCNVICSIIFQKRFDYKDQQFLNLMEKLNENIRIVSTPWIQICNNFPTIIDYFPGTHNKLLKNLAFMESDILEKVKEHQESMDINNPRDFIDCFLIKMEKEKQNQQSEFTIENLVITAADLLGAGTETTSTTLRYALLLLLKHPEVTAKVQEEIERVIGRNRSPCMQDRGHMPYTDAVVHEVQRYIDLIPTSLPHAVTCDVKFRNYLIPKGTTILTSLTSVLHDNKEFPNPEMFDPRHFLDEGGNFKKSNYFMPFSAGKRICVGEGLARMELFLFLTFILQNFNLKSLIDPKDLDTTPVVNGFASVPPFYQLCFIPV

CYP450, 2C9 = CYP450, 2C9 (Homo sapiens, UniProt P11712); settings: 10 μM
Chain of CYP450, 2C9 (P11712 whole entry): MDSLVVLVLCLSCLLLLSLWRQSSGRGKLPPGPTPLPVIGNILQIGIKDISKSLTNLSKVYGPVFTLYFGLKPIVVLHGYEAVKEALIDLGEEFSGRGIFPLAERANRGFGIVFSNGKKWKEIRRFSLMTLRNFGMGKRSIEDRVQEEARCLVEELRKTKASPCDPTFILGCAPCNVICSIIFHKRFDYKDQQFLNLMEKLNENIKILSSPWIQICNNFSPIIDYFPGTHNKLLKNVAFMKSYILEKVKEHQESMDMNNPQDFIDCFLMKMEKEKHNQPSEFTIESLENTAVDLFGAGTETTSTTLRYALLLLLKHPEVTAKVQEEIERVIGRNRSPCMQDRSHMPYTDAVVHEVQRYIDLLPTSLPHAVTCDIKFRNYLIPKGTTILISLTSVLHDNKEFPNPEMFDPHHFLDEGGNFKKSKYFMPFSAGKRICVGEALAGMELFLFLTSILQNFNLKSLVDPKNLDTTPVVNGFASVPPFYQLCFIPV

CYP450, 2D6 [2] = target: T4, CYP450, 2D6 (Homo sapiens, UniProt P10635); settings: 10 μM
T4 sequence (P10635 whole entry): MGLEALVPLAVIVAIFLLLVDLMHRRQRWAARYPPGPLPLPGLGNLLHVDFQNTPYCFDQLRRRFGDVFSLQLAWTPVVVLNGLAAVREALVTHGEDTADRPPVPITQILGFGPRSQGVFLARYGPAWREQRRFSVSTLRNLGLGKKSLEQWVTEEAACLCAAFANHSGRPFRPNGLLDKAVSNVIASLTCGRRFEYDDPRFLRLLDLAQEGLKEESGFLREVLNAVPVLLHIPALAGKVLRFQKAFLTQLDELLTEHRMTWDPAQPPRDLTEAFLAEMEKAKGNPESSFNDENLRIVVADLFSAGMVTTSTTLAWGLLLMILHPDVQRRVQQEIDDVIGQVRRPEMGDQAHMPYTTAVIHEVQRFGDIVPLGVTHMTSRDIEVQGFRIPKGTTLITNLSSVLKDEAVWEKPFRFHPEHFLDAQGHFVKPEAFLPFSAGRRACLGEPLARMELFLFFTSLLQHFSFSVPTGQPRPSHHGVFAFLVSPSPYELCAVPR

CYP450, 3A4 [3] = target: T5, CYP450, 3A4 (Homo sapiens, UniProt P08684); settings: 10 μM
T5 sequence (P08684 whole entry): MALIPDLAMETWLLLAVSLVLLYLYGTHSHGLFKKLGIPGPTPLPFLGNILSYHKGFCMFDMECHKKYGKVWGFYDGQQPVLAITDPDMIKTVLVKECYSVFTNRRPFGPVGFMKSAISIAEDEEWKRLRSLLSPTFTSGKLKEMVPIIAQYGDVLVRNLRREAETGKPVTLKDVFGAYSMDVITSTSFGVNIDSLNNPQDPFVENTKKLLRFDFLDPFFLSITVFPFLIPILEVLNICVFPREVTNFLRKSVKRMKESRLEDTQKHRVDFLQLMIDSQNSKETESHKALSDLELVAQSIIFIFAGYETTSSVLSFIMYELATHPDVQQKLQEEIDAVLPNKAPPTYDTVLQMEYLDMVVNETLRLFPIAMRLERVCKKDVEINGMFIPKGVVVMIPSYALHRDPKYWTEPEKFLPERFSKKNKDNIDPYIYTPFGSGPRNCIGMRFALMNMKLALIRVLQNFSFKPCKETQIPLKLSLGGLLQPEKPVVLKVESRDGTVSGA

Potassium Channel hERG [4] = target: T6, Potassium Channel hERG (Homo sapiens, UniProt Q12809); settings: 10 μM
T6 sequence (Q12809 whole entry): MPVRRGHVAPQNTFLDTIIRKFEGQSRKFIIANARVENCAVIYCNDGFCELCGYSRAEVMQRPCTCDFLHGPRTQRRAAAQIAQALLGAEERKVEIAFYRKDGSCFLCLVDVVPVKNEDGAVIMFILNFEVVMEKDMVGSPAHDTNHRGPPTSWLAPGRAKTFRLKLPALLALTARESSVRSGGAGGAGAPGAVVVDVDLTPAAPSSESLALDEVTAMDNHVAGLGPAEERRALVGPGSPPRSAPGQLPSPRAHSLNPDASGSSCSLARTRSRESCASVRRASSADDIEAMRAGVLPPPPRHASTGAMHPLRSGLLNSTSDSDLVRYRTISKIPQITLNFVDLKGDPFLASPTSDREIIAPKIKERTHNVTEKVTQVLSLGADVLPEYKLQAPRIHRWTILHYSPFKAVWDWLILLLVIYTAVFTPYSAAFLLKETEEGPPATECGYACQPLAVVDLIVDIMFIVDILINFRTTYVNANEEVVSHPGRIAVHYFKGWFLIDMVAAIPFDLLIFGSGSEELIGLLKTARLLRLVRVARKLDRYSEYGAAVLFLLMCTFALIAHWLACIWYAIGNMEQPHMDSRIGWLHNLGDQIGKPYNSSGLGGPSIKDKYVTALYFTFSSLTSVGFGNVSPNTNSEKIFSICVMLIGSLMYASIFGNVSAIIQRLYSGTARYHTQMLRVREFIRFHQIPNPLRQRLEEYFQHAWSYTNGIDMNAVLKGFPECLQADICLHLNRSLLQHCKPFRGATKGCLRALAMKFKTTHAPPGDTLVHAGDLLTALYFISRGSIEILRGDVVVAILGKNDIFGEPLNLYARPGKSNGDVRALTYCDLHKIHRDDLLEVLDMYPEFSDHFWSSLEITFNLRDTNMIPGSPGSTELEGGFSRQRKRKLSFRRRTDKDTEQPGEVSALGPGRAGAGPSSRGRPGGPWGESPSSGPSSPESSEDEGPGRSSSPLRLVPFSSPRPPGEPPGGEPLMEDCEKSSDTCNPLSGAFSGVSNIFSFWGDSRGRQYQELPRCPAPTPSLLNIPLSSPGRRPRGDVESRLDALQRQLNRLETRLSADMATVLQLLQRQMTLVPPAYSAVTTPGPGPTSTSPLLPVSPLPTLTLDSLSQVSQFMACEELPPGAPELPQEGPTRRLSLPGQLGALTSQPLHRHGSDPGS

CYP450, 1A2 [5] = target: T7, CYP450, 1A2 (Homo sapiens, UniProt P05177); settings: 10 μM
T7 sequence (P05177 1-516): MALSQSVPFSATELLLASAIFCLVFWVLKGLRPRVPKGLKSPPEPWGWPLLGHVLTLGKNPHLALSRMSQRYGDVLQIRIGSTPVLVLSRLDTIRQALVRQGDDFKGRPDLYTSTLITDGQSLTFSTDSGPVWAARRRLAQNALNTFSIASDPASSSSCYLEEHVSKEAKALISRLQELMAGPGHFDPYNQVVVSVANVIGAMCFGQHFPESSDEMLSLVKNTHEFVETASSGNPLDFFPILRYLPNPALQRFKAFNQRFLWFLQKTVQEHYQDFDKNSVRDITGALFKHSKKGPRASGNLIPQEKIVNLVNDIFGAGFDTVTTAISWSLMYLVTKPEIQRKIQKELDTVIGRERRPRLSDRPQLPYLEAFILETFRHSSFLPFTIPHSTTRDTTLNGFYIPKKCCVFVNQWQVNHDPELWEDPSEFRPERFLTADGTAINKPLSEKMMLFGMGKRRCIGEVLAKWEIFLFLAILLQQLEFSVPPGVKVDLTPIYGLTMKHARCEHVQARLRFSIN

CYP450, 2D6 [6] = target: T4, CYP450, 2D6; settings: 10 µM
CYP450, 2C19 [7] = target: T3, CYP450, 2C19; settings: 10 µM
Potassium Channel hERG [8] = target: T6, Potassium Channel hERG; settings: 10 µM
CYP450, 3A4 [9] = target: T5, CYP450, 3A4; settings: 10 µM
CYP450, 1A2 [10] = target: T7, CYP450, 1A2; settings: 10 µM

Chain of Adrenergic β2 (P07550 whole entry): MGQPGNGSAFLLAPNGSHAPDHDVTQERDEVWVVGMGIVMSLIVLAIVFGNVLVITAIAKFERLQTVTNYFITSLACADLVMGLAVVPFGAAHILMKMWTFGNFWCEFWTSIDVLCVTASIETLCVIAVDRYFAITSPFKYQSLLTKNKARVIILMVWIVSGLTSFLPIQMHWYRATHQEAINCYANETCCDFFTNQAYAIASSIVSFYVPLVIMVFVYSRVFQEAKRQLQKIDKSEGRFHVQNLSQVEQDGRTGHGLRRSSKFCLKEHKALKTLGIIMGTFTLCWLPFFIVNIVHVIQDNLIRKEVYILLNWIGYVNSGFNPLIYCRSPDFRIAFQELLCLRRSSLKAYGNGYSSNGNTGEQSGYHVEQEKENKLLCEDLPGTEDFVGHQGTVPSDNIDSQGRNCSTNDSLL
Chain of Muscarinic M3 (P20309 whole entry): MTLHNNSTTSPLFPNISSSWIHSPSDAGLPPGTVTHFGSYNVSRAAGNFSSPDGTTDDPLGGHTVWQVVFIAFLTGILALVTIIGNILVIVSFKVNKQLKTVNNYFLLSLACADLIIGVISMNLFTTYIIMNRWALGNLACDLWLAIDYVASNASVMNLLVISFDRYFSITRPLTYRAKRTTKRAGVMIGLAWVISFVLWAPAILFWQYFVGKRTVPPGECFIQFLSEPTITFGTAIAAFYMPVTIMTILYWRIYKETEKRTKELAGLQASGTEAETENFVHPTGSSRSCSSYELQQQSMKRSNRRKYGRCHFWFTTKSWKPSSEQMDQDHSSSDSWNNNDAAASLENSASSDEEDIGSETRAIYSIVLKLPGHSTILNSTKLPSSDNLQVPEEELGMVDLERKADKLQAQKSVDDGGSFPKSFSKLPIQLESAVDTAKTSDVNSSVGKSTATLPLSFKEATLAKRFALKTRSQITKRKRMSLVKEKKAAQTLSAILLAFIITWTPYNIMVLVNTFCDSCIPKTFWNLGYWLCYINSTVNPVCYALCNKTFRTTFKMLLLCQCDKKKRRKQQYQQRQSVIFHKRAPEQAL
Chain of CYP2D6 (P10635 whole entry): as the sequence (P10635 whole entry) above

| SMILES | % Inhibition (Rolipram) [%] | % Inhibition (Sodium Channel, Site 2) [%] | % Inhibition (Muscarinic M3) [%] | % Inhibition (CYP450, 2C19 [1]) [%] | % Inhibition (Adrenergic β2) [%] | % Inhibition (CYP450, 2C9) [%] | % Inhibition (CYP450, 2D6 [2]) [%] | % Inhibition (Adrenergic α1A) [%] | % Inhibition (Prostanoid EP4) [%] | % Inhibition (CYP450, 3A4 [3]) [%] | % Inhibition (Potassium Channel hERG [4]) [%] | % Inhibition (CYP450, 1A2 [5]) [%] | % Inhibition (Adrenergic α2A) [%] | also measured |
| --- | --- | --- | --- | --- | --- | --- | --- | --- | --- | --- | --- | --- | --- | --- |
| O=C(Nc1nnc(-c2ccc(F)cc2)o1)c1ccc(Oc2ccccc2)nc1 [MBX-4237] | 1 | −3 | – | – | – | – | – | – | – | – | – | – | – | inhibition at 10 µM (Muscarinic M3): 11%; inhibition at 10 µM (Adrenergic β2): 15%; inhibition at 10 µM (CYP2C9): 5%; inhibition at 10 µM (CYP2D6): -4%; inhibition at 10 µM (Adrenergic α1A): 6%; inhibition at 10 µM (Prostanoid EP4): -22%; inhibition at 10 µM (hERG potassium channel): 8%; inhibition at 10 µM (CYP1A2): 1%; inhibition at 10 µM (Adrenergic α2A): -8% |
| O=C(Nc1nnc(-c2ccc(F)cc2)o1)c1ccc(OC2CCCCC2)cc1 [MBX-4292] | −8 | −2 | 0 | 9 | 6 | 10 | 2 | 9 | 28 | 4 | 8 | 5 | 3 | – |
| O=C(Nc1nnc(-c2ccc(F)cc2)o1)N1CC=C(C(F)(F)F)CC1 [MBX-4347] | −6 | −5 | 2 | 8 | 8 | 4 | 9 | −21 | −4 | 9 | 0 | 2 | 9 | – |
| O=C(Nc1nnc(-c2ccc(F)cc2)o1)N1CCc2ccccc2C1 [MBX-4132] | 2 | 4 | 16 | – | 36 | – | – | 24 | 18 | – | – | – | 54 | % Inhibition (CYP450, 2D6 [6]): 10%; % Inhibition (CYP450, 2C19 [7]): 44%; % Inhibition (Potassium Channel hERG [8]): 64%; % Inhibition (CYP450, 3A4 [9]): 7%; % Inhibition (CYP450, 1A2 [10]): 9% |

From patent publication US11505533B2, “Metabolically stable N-acylaminooxadiazoles useful as antibacterial agents” (MICROBIOTIX, INC., priority 2017, dated 2022)
